# In patent US20130310374A1, “Substituted Imidazoquinoline Derivatives” (PIRAMAL ENTERPRISES LIMITED`, priority 2010, published 2013):
# Like-named read-outs stand apart in the source and are kept apart here.
# Key:
# PC3 = assay: Cytotoxicity propidium iodide assay, PC3; format: cell-based, human; details: Homo sapiens, PC-3; for IC50: PC3 (prostate), 48 hours treatment, read-out: IC50 Values in μM, C2a; for inhibition at 1 µM: PC3, 1 μM, 48 hours, read-out: % Inhibition at 1 μM, C2a
# Method: (§1) The assay was designed as in the reference, Anticancer Drugs, 2002, 13, 1-8, the disclosure of which is incorporated herein by reference for the teaching of the assay.
# (§2) Cells from cell lines (ATCC) as mentioned in the table given below were seeded at a density of 3000 cells/well in a white opaque 96-well plate. Following incubation at 37° C./5% CO2 for a period of 18-24 hours, the cells were treated with various concentrations (stock solution was prepared in DMSO and subsequent dilutions were made in media as per ATCC guidelines) of the compounds of the present invention for a period of 48 hours. At the end of treatment, the culture medium was discarded, the cells were washed with 1×PBS and 200 μL of […] propidium iodide was added to each well. The plates were frozen at 70° C. overnight. For analysis, the plates were warmed to RT, allowed to thaw and were read in PoleStar fluorimeter with the fluorescence setting. The percentage of viable cells in the non-treated set of wells was considered to be 100 and the percentage viability following treatment was calculated accordingly. IC50 values were calculated from graphs plotted using these percentages. IC50 values for certain compounds of present invention are depicted in Table 1 and % Inhibition of certain compounds of present invention are depicted in Table 2.
# MDA MB 231 = assay: Cytotoxicity propidium iodide assay, MDA MB 231; format: cell-based; details: Homo sapiens; MDA MB 231 (breast), 48 hours treatment; read-out: IC50 Values in μM, C3a
# Method: as §1
# as §2, with “The plates were frozen at 70° C. overnight.” left out
# PANC 1 = assay: Cytotoxicity propidium iodide assay, PANC 1; format: cell-based; details: Homo sapiens; PANC 1 (pancreatic), 48 hours treatment; read-out: IC50 Values in μM, C4a
# Method: as §1, §2
# MCF7 = assay: Cytotoxicity propidium iodide assay, MCF7; format: cell-based; details: Homo sapiens; MCF7 (breast), 48 hours treatment; read-out: IC50 Values in μM, C3d
# Method: as §1, §2
# AsPC 1 = assay: Cytotoxicity propidium iodide assay, AsPC 1; format: cell-based; details: Homo sapiens, ASPC1; AsPC 1 (pancreatic), 48 hours treatment; read-out: IC50 Values in μM, C4b
# Method: as §1
# as §2, with “The plates were frozen at 70° C. overnight.” left out
# BxPC3 = assay: Cytotoxicity propidium iodide assay, BxPC3; format: cell-based; details: Homo sapiens, BXPC-3; BxPC3 (pancreatic), 48 hours treatment; read-out: IC50 Values in μM, C4c
# Method: as §1, §2
# BT 549 = assay: Cytotoxicity propidium iodide assay, BT 549; format: cell-based; details: Homo sapiens; BT 549 (breast), 48 hours treatment; read-out: IC50 Values in μM, C3c
# Method: as §1, §2
# PI3K/mTOR pathway = assay: Western blot analysis in A2780 ovarian cancer cell line; format: cell-based; details: A2780 cells treated for 1 hour; FIG. 1A-1E
# Method: Protocol for Western Blot Analysis
# A2780 ovarian cancer cell line (ATCC) were grown to approximately 70% confluence in 100-mm tissue culture dishes and then treated for 1 hour with […] compounds of Example 2, 3, 5, 16, 19, 55 and 59. Total protein was extracted using cell lysis buffer (NaCl […], NP40 0.67%, Tris-Cl, pH 7.5, 67 mM) containing protease inhibitors and phosphatase inhibitors (Beta-glycerol phosphate 40 mM, DTT 1 mM, NaF 0.4 mM, Sodium-Orthovanadate 0.4 mM) at 4° C. for 1 hour. Cell lysates were then centrifuged at 2×10^4 g for 10 minutes at 4° C., and the protein concentration of the supernatant was quantified using the Bradford's method (BioRad, USA). For SDS-PAGE, 50 μg protein was loaded in SDS-PAGE, transferred to a polyvinylidene difluoride membrane (Bio-Rad, USA) and blocked with 5 mL buffer [5% skim milk and 0.1% Tween] for 1 hour 30 minutes. Membrane were probed with primary antibody (all primary antibodies were from cell signaling with 1:1000 in TBST solution) of respective protein at 4° C. overnight. Peroxidase-labeled anti-rabbit or anti-mouse antibodies (Santacruze, USA) were used as the secondary antibody. Actin and respective whole protein levels were used as the control for protein loading. Protein antigens were detected using Chemiluminescent Substrate (Thermo scientific, USA) and exposed on Kodak station.
# A2780 = assay: Cytotoxicity propidium iodide assay, A2780; format: cell-based; details: Homo sapiens; for IC50: A2780 (ovarian), 48 hours treatment, read-out: IC50 Values in μM, C1a; for inhibition at 1 µM: A2780, 1 μM, 48 hours, read-out: % Inhibition at 1 μM, C1a
# Method: as §1, §2
# MDA MB 468 = assay: Cytotoxicity propidium iodide assay, MDA MB 468; format: cell-based; details: Homo sapiens; MDA MB 468 (breast), 48 hours treatment; read-out: IC50 Values in μM, C3b
# Method: as §1, §2
# KU812/SR = assay: Cytotoxicity propidium iodide assay, KU812/SR; format: cell-based; details: KU812/SR (CML), 48 hours treatment; read-out: IC50 Values in μM, C6c
# Method: as §1, §2
# KCL22/SR = assay: Cytotoxicity propidium iodide assay, KCL22/SR; format: cell-based; details: KCL22/SR (CML), 48 hours treatment; read-out: IC50 Values in μM, C6e
# Method: as §1, §2
# LN229 = assay: Cytotoxicity propidium iodide assay, LN229; format: cell-based; details: LN229 (glioblastoma), 48 hours treatment; read-out: IC50 Values in μM, C5a
# Method: as §1, §2
# LN18 = assay: Cytotoxicity propidium iodide assay, LN18; format: cell-based; details: LN18 (glioblastoma), 48 hours treatment; read-out: IC50 Values in μM, C5b
# Method: as §1, §2
# K562 = assay: Cytotoxicity propidium iodide assay, K562; format: cell-based; details: K562 (CML), 48 hours treatment, read-out: IC50 Values in μM, C6a
# Method: as §1, §2
Molecule,IC50 (PC3) [µM],IC50 (MDA MB 231) [µM],IC50 (PANC 1) [µM],IC50 (MCF7) [µM],IC50 (AsPC 1) [µM],IC50 (BxPC3) [µM],IC50 (BT 549) [µM],IC50 (A2780) [µM],IC50 (MDA MB 468) [µM],inhibition at 1 µM (PC3) [%],inhibition at 1 µM (A2780) [%],further results
"Cn1c(=O)n(-c2ccc(C(F)(F)F)nc2Cl)c2c3cc(-c4cnc(N)c(C(F)(F)F)c4)ccc3ncc21 [Example 59, 8-(6-Amino-5-(trifluoromethyl)pyridin-3-yl)-1-(2-chloro-6-(trifluoromethyl)pyridin-3-yl)-3-methyl-1H-imidazo[4,5-c]quinolin-2(3H)-one]",0.018,< 0.01,0.017,0.013,0.042,< 0.01,0.04,< 0.01,0.07,–,–,"Akt, S6 and 4EBP1 phosphorylation (Western blot) (PI3K/mTOR pathway): inhibit Akt, S6 and 4EBP1 phosphorylation"
"Cn1c(=O)n(-c2ccc(C(C)(C)C#N)nc2)c2c3cc(-c4ccc5ncccc5c4)ccc3ncc21 [Example 5, 2-Methyl-2-(5-(3-methyl-2-oxo-8-(quinolin-6-yl)-2,3-dihydro-1H-imidazo[4,5-c]quinolin-1-yl)pyridin-2-yl)propanenitrile]",0.38,–,–,–,–,–,–,0.08,–,–,–,"Akt, S6 and 4EBP1 phosphorylation (Western blot) (PI3K/mTOR pathway): inhibit Akt, S6 and 4EBP1 phosphorylation"
"Cn1c(=O)n(CCN2CCOCC2)c2c3cc(-c4cccnc4)ccc3ncc21 [Example 68, 3-Methyl-1-(2-morpholinoethyl)-8-(pyridin-3-yl)-1H-imidazo[4,5-c]quinolin-2(3H)-one]",2.4,2.3,4.6,3,4.6,2.4,> 10,1.4,7,–,–,–
"1-(6-Chloro-2,4′-bipyridin-3-yl)-3-methyl-8-(pyridin-3-yl)-1H-imidazo[4,5-c]quinolin-2(3H)-one [Example 72]",–,–,–,–,–,–,–,–,–,–,–,IC50 (KU812/SR): 1.14 µM; IC50 (KCL22/SR): 0.23 µM; IC50 (LN229): 0.44 µM; IC50 (LN18): 0.992 µM; IC50 (K562): 0.0144 µM
"Cn1c(=O)n(-c2ccc(C(F)(F)F)nc2)c2c3cc(-c4cnc5ccccc5c4)ccc3ncc21 [Example 54, 3-Methyl-8-(quinolin-3-yl)-1-(6-(trifluoromethyl)pyridin-3-yl)-1H-imidazo[4,5-c]quinolin-2(3H)-one]",0.55,0.55,0.95,0.8,0.55,0.78,1,0.16,1.2,–,–,–
"Cn1c(=O)n(-c2ccc(Cl)nc2C(F)(F)F)c2c3cc(-c4cccnc4)ccc3ncc21 [Example 63, 1-(6-Chloro-2-(trifluoromethyl)pyridin-3-yl)-3-methyl-8-(pyridin-3-yl)-1H-imidazo[4,5-c]quinolin-2 (3H)-one]",–,–,–,4,–,–,5.6,–,–,53,88,IC50 (K562; Homo sapiens): 0.224 µM
"CC(C)(C#N)c1ccc(-n2c(=O)n(CC#N)c3cnc4ccc(-c5cnc6ccccc6c5)cc4c32)cn1 [Example 17, 2-(5-(3-(Cyanomethyl)-2-oxo-8-(quinolin-3-yl)-2,3-dihydro-1H-imidazo[4,5-c]quinolin-1-yl)pyridin-2-yl)-2-methylpropanenitrile]",0.17,0.17,0.23,0.25,0.24,0.085,0.37,0.065,0.45,–,–,–
"Cn1c(=O)n(-c2ccc(C#N)nc2)c2c3cc(-c4cccnc4)ccc3ncc21 [Example 49, 5-(3-Methyl-2-oxo-8-(pyridin-3-yl)-2,3-dihydro-1H-imidazo[4,5-c]quinolin-1-yl)picolinonitrile]",0.017,0.016,0.035,0.03,0.025,0.04,0.3,0.009,0.065,–,–,–
"Cn1c(=O)n(-c2ccc3ncccc3c2)c2c3cc(-c4cnc(N)c(C(F)(F)F)c4)ccc3ncc21 [Example 67, 8-(6-Amino-5-(trifluoromethyl)pyridin-3-yl)-3-methyl-1-(quinolin-6-yl)-1H-imidazo[4,5-c]quinolin-2 (3H)-one]",0.015,0.012,0.025,0.02,0.035,0.0085,0.011,0.006,0.05,–,–,–
"Cn1c(=O)n(-c2ccc(C(C)(C)C#N)nc2)c2c3cc(-c4cncc(C(F)(F)F)c4)ccc3ncc21 [Example 4, 2-Methyl-2-(5-(3-methyl-2-oxo-8-(5-(trifluoromethyl)pyridin-3-yl)-2,3-dihydro-1H-imidazo[4,5-c]quinolin-1-yl)pyridin-2-yl)propanenitrile]",–,–,–,–,–,–,–,–,–,72.6,89.2,–
"Cn1c(=O)n(-c2ccc(C(F)(F)F)nc2)c2c3cc(-c4ccc(C(F)(F)F)nc4)ccc3ncc21 [Example 56, 3-Methyl-1,8-bis(6-(trifluoromethyl)pyridin-3-yl)-1H-imidazo [4,5-c]quinolin-2(3H)-one]",–,–,–,–,–,–,–,–,–,32,57,–
"COc1ccc(-n2c(=O)n(C)c3cnc4ccc(-c5cncc(C(F)(F)F)c5)cc4c32)cn1 [Example 22, 1-(6-Methoxypyridin-3-yl)-3-methyl-8-(5-(trifluoromethyl)pyridin-3-yl)-1H-imidazo[4,5-c] quinolin-2(3H)-one]",–,–,–,–,–,–,–,–,–,67.8,83.1,–
